# Measurements as given in US20200197392A1, “COMPOSITIONS AND METHODS FOR TREATING TUBEROUS SCLEROSIS COMPLEX” (THE BRIGHAM & WOMEN'S HOSPITAL, INC., priority 2017, published 2020).
# Where two headings read alike, the source gives them in different places.
# How the values were obtained:
# [1] = system: HCV29 cells; details: 30 nM THZ1, 1 mM GSH
# [2] = system: TSC-null cells; assay: Antioxidant rescue of THZ1-induced cell death (Trypan blue); type: cell-based; details: THZ1 30 nM, NAC 2 mM or GSH-MEE 2 mM, 48 hr
# Text: (§1) FIGS. 8A-8G. Reduction of glutathione and increase in ROS in THZ1-treated TSC null cells. […] Arrow indicates glutathione. (n=3 samples) (FIG. 8B) Heat map showing the top 15 metabolites with greatest change in 621.101.TSC2− cells, with comparison to control and similarly-treated 621.101.TSC2-addback cells (n=3 samples). The scale is log 2 fold-change. […] Each data point represents the mean±SEM of three independent experiments (** p<0.01; *** p<0.001). […] Each data point represents the mean±SEM of three independent experiments (* p<0.05; ** p<0.01; *** p<0.001). […] Phase contrast images are at top. Cell death (%) is shown at bottom for these treatments as well as RAP (rapamycin 20 nM) and NAC (2 mM) for HCV.29.TSC1− and 621-101.TSC2− after 48 hours of treatment, measured by Trypan blue staining. Each data point represents the mean±SEM of three independent experiments (* p<0.05; ** p<0.01; *** p<0.001).
# FIGS. 9A-9C. […] (n=3 samples,*** p<0.0005). […] Each data point represents the mean±SEM of three independent experiments (** p<0.01; *** p<0.001). (FIG. 9C) Cell death of MEF.TSC2− after 48 hours of treatment with indicated compounds was measured via Trypan blue staining assay. Each data point represents the mean±SEM of three independent experiments (* p<0.05; *** p<0.001). […]
# [3] = system: TSC-null cells; assay: ROS levels in TSC-null cells; type: cell-based; details: NAC 2 mM + THZ1 30 nM, 48 hr
# Text: as §1
# As GSH is the major intracellular antioxidant […], reactive oxygen species (ROS) were next measured in these cells.
# In addition, to examine whether glutathione depletion was the proximate cause of apoptosis in THZ1-treated TSC-null cells, cells were treated with GSH reduced ethyl ester (GSH-MEE), a membrane-permeable derivative of GSH.
# [4] = system: tumors in a TSC mouse model; assay: SY-1365 in a TSC mouse model; type: in vivo; details: tail vein injection 2×/week at 40 mg/kg for 4 weeks
# Protocol: FIG. 16. Effect of SY-1365 on tumor volume in a TSC mouse model. SY-1365 was administered by tail vein injection 2×/week at 40 mg/kg for 4 weeks. Mice were then sacrificed and tumor assessment performed based on histology.
# [5] = target: T1, CDK7 (Homo sapiens, UniProt P50613); details: cited from earlier work
# T1 sequence (P50613 whole entry): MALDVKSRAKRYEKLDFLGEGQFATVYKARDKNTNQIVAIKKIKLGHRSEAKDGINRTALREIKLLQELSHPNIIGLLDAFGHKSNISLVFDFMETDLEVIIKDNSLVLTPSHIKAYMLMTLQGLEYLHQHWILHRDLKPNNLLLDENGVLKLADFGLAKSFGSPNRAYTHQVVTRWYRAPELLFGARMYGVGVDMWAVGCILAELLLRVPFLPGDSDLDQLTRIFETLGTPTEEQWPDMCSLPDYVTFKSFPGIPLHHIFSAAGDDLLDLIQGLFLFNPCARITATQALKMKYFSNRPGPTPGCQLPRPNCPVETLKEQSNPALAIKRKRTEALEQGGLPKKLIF
# T1 sequence (P51946 whole entry partner): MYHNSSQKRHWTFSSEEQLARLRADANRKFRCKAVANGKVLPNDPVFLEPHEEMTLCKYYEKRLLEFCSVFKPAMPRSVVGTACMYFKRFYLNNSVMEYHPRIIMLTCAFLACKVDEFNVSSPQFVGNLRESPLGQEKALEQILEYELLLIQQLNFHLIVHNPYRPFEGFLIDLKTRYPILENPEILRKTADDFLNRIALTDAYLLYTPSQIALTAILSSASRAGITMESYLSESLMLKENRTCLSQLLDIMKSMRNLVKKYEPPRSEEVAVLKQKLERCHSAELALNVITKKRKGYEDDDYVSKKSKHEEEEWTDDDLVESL
# T1 sequence (P51948 whole entry partner): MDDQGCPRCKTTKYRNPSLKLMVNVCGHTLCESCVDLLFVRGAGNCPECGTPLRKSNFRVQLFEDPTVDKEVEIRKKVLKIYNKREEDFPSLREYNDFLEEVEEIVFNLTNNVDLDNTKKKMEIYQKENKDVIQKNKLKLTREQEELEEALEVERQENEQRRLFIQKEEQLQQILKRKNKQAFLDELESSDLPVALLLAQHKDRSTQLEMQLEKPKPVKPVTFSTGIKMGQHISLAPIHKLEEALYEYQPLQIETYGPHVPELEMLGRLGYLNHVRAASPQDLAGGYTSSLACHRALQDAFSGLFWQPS
# [6] = target: T1, CDK7; details: read-out: cellular IC50; cited from earlier work
# [7] = compared to THZ1; cited from earlier work
# [8] = system: 621-101 cells (TSC2 null angiomyolipoma cell line); assay: 96-well plate proliferation assay (PicoGreen dsDNA); type: cell-based; details: 96 h; 621-101, 4 days; read-out: IC50, inhibition of proliferation
# Protocol: (§2) FIG. 1. THZ1 selectively targets TSC-deficient cells. […] Cell viability was assessed after 4 days of treatment using Quant-it PicoGreen dsDNA. Data is represented as mean±SD.
# (§3) Multiple studies were performed that support these hypotheses. Most studies to date have been performed on two pairs of cell lines: (i) HCV29, a TSC1 null human bladder cancer cell line, and a corresponding TSC1 addback derivative (TSC1-HCV29), and (ii) 621-101, a TSC2 null angiomyolipoma cell line, and the TSC2 addback derivative […].
# [9] = system: HCV29 cells (TSC1 null bladder cancer cell line); assay: as above; type: cell-based; details: Homo sapiens, HCV-29, 96 h; HCV29, 4 days; read-out: IC50, inhibition of proliferation
# Protocol: as §2, §3
# [10] = system: HCV29 cells; assay: Cell cycle flow cytometry; type: cell-based, human; details: 30 nM, 24 h
# [11] = system: TSC1-HCV29 cells; assay: Cell cycle flow cytometry; type: cell-based, human; details: 30 nM, 24 h
# [12] = system: HCV29 cells; assay: Apoptosis by flow cytometry, propidium iodide and Annexin V; type: cell-based, human; details: 30 nM, 72 h
# Text: (§4) FIGS. 2A-2B. […] Apoptosis was monitored by flow cytometry using FITC-Annexin V. Each data point represents the mean±SEM of three independent experiments. *** p<0.001 (FIG. 2B) Immunoblot analyses of caspase-3 and actin.
# [13] = system: TSC1-HCV29 cells; assay: as above; type: cell-based, human; details: 30 nM, 72 h
# Text: as §4
# [14] = system: HCV29 cells; assay: ROS levels; type: cell-based, human; details: THZ1 30 nM, rapamycin 20 nM or both
# [15] = system: HCV29 cells; assay: Steady state metabolite analysis; type: cell-based, human; details: 30 nM, 48 h
# [16] = system: HCV29 cells; assay: RNA-Seq gene expression, HCV29 vs TSC1-HCV29; type: cell-based, human; details: 30 nM THZ1-treated HCV29 vs THZ1-treated TSC1-HCV29, 6 hours
# Text: However, the inventors focused on expression of all genes involved in the synthesis of reduced glutathione.
# [17] = system: HCV29 xenograft tumors; assay: HCV29 xenograft tumors in Foxn1nu mice (Example 1); type: in vivo; details: 10 mg/kg IP twice daily, 30 days
# Text: FIG. 3. […] Treatment groups are indicated. […] Caliper measurements were used to calculate tumor volume.
# HCV29 xenograft tumors were induced in immune-deficient Foxn1^nu mice by injection of 10^7 cells into each flank. […] Tumor size was monitored using calipers.
# [18] = system: TSC-null cell lines; assay: 96 well plate growth assay, TSC-null cell lines; type: cell-based; details: 120 h, 6 cell line pairs, 5 days
# Protocol: (§5) FIGS. 4A-4F. […] Cell number was calculated by measurement of dsDNA content using PicoGreen after 5 days in 96-well plate assays. Each data point represents the mean of 4 measurements. SEM are indicated. […] Apoptotic cell death was quantified by propidium iodide (PI) staining and flow cytometry, and is shown as the percentage of cells that were PI positive. Each data point represents the mean±SEM of three independent experiments. * p<0.05; ** p<0.01; *** p<0.001. […] Beta-actin serves as a loading control.
# (§6) FIGS. 5A-5D. […] Beta-actin serves as a loading control. […] Apoptotic cells were quantified by propidium iodide (PI) staining and flow cytometry. Each data point represents the mean±SEM of three independent experiments. * p<0.05; ** p<0.01; *** p<0.001. […] Beta-actin serves as a loading control.
# [19] = system: TSC-addback cell lines; assay: 96 well plate growth assay, TSC-addback cell lines; type: cell-based; details: 120 h, 6 cell line pairs, 5 days
# Protocol: as §5, §6
# [20] = system: TSC null cells; assay: NRF2, GCLC, GCLM, GSR protein expression; type: cell-based; details: 24 hours after THZ1 treatment
# [21] = system: kidney cystadenomas in Tsc2+/− A/J strain mice; details: THZ1 10 mg/kg IP twice a day 29 days; rapamycin 3 mg/kg 3 times per week
# Text: FIGS. 12A-12F. […] (FIG. 12A) Experimental plan. Tsc2+/− A/J strain mice develop kidney cystadenomas with 100% penetrance by 4 months of age with progressive tumor development. […] (FIG. 12B) Number of tumors per kidney in each treatment group (n=kidney number). ***p<0.001. (FIG. 12C) Tumor volume per kidney, with each data point corresponding to one kidney. (FIG. 12D) Renal cystadenoma histology in the treated mice. Representative tumor images are shown for each treatment cohort. Cystadenomas and tumors each are shown at 100×. […] (FIG. 12E) Ki-67 staining to assess cell proliferation in kidney sections from the treated mice. All images are at 100× magnification. Percentage of tumor cells with nuclear immunoreactivity of Ki-67 was scored from six random fields per section. ***p<0.001.
# FIGS. 13A-13B. […]
# Tsc2+/− A/J strain mice develop kidney cystadenomas by 4 months of age, and provide a native in vivo model that is […] human TSC patients, and is driven by spontaneous second hit events that lead to complete loss of Tsc2 expression and mTORC1 activation (Auricchio et al., 2012; Guo and Kwiatkowski, 2013; Woodrum et al., 2010). […] Rapamycin was dramatically effective in reducing tumor volume by about 99%, as assessed semi-quantitatively on H&E-stained sections (FIG. 12C), similar to what we have seen previously (Guo and Kwiatkowski, 2013). […]
# [22] = system: HCV.29-TSC1− xenograft tumors; assay: HCV29-TSC1- xenograft model (Example 2); type: in vivo, mice; details: THZ1 10 mg/kg IP twice a day, rapamycin 3 mg/kg IP 3 days per week, or both
# Protocol: FIGS. 14A-14D. […] Tumor size was measured every 3rd day using a digital caliper. […] This was quantified by counting four to six random fields per section. Scale bar=50 μm. **p<0.01, ***p<0.001. […] This was quantified by counting four to six random fields per section. Scale bar 50 μm. not shown (n=6) ***p<0.001. (FIG. 14D) Diagram showing glutathione synthetic pathway and ROS generation in TSC mutant cells. Top, TSC-deficient cells have hyperactive mTORC1, leading to increased ROS, NRF2 induction, and an increase in transcription of glutathione synthetic genes to yield more glutathione to buffer the increased ROS.
# FIGS. 15A-15C. (FIG. 15A) Average body weight of TSC1-deficient HCV.29 xenograft mice in each treatment group. […] (n=4 tumors per group). ***p<0.001.
# Tumor volumes were measured by calipers. […] Finally, in a cohort of xenograft mice, the treatments were discontinued and tumor growth was observed without intervention after the one month of treatment.
smiles,measurement,setting,value
"N[C@@H](CCC(=O)N[C@@H](CS)C(=O)NCC(=O)O)C(=O)O [GSH, glutathione]",THZ1-induced HCV29 cell death with GSH co-treatment,[1],markedly reduced
"CCOC(=O)CNC(=O)[C@H](CS)NC(=O)CC[C@H](N)C(=O)O [GSH-MEE, GSH reduced ethyl ester]",cell death / viability of THZ1-treated TSC-null cells with co-treatment,[2],rescued the viability
"CC(=O)N[C@@H](CS)C(=O)O [NAC, N-acetyl-cysteine]",ROS levels in THZ1 treated TSC-null cells with antioxidant,[3],restored ROS levels to near baseline
same,cell death / viability of THZ1-treated TSC-null cells with co-treatment,[2],significantly reduced the cell death
CN(C)C/C=C/C(=O)Nc1ccc(C(=O)N[C@@]2(C)CCC[C@@H](Nc3ncc(Cl)c(-c4c[nH]c5ccccc45)n3)C2)nc1 [SY-1365],"reduction in tumor volume (semi-quantitative, histology)",[4],99%
same,"selectivity for CDK7 over other CDKs (e.g., CDK9)",[5],high selectivity for CDK7 over other CDKs
same,IC50,[5]; read-out: enzymatic IC50,~22 nM
same,IC50,[6],~20 nM
same,pharmacokinetic properties,[7],improved pharmacokinetic properties compared to THZ1
CN(C)C/C=C/C(=O)Nc1ccc(C(=O)Nc2cccc(Nc3ncc(Cl)c(-c4c[nH]c5ccccc45)n3)c2)cc1 [THZ1],IC50,[8],~30 nM
same,IC50,[9],~30 nM
same,cells arrested in G2/M-phase,[10],21%
same,cells arrested in G2/M-phase,[11],5.5%
same,Annexin V+ cells,[12],37%
same,Annexin V+ cells,[13],2%
same,ROS levels increase,[14],2.5 fold
same,Glutathione disulfide (GSS) levels reduced,[15],65%
same,S-adenosyl-L-homocysteine reduction in levels,[15],87%
same,glutathione (GSH) reduction in levels,[15],78%
same,GCLC mRNA levels reduction,[16],82%
same,GCLM mRNA levels reduction,[16],68%
same,GSR mRNA levels reduction,[16],86%
same,body weight and apparent toxicities,[17],did not affect body weight or cause other apparent toxicities
same,IC50,"[18]; read-out: IC50 range, TSC-null cell lines",16 to 39 nM
same,IC50,"[18]; read-out: median IC50, TSC-null cell lines",26.5 nM
same,IC50,"[19]; read-out: IC50 range, addback lines",190 to 660 nM
same,IC50,"[19]; read-out: median IC50, addback lines",475 nM
same,"reduction in expression of each protein (NRF2, GCLC, GCLM, GSR)",[20],> 90%
same,"reduction of tumor volume (semi-quantitative, H&E sections)",[21],about 99%
same,body weight and toxicity,[22],No effect on body weight or other evidence of toxicity
CO[C@H]1C[C@@H]2CC[C@@H](C)[C@@](O)(O2)C(=O)C(=O)N2CCCC[C@H]2C(=O)O[C@H]([C@H](C)C[C@@H]2CC[C@@H](O)[C@H](OC)C2)CC(=O)[C@H](C)/C=C(\C)[C@@H](O)[C@@H](OC)C(=O)[C@H](C)C[C@H](C)/C=C/C=C/C=C/1C [rapamycin],"reduction of tumor volume (semi-quantitative, H&E sections)",[21],about 99%
same,body weight and toxicity,[22],No effect on body weight or other evidence of toxicity
